Experiments:
[1] = molecular target: T1, CDK2/CycE (Homo sapiens, UniProt P24941); assay: CDK2/CycE kinase assay (TR-FRET); type: biochemical; conditions: avg, read-out: CDK2 avg (IC50 [mol/l])
T1 construct: GST; purchased ProQinase GmbH (Freiburg, Germany); host or cells: insect cells (Sf9)
Source text: CDK2/CycE -inhibitory activity of compounds of the present invention was quantified employing the CDK2/CycE TR-FRET assay as described in the following paragraphs.
Recombinant fusion proteins of GST and human CDK2 and of GST and human CycE, expressed in insect cells (Sf9) and purified by Glutathion-Sepharose affinity chromatography, were purchased from ProQinase GmbH (Freiburg, Germany). As substrate for the kinase reaction biotinylated peptide biotin-Ttds-YISPLKSPYKISEG (C-terminus in amid form) was used which can be purchased e.g. form the company JERINI peptide technologies (Berlin, Germany).
For the assay 50 nl of a 100fold concentrated solution of the test compound in DMSO was pipetted into a black low volume 384we11 microtiter plate (Greiner Bio-One, Frickenhausen, Germany), 2 μl of a solution of CDK2/CycE in aqueous assay buffer [50 mM Tris/HCl pH 8.0, 10 mM MgCl2, 1.0 mM dithiothreitol, 0.1 mM sodium ortho-vanadate, 0.01% (v/v) Nonidet-P40 (Sigma)] were added and the mixture was incubated for 15 min at 22° C. to allow pre-binding of the test compounds to the enzyme before the start of the kinase reaction. Then the kinase reaction was started by the addition of 3 μl of a solution of adenosine-tri-phosphate (ATP, 16.7 μM=>final conc. in the 5 μl assay volume is 10 μM) and substrate (1.25 μM=>final conc. in the 5 μl assay volume is 0.75 μM) in assay buffer and the resulting mixture was incubated for a reaction time of 25 min at 22° C. The concentration of CDK2/CycE was adjusted depending of the activity of the enzyme lot and was chosen appropriate to have the assay in the linear range, typical concentrations were in the range of 130 ng/ml. The reaction was stopped by the addition of 5 μl of a solution of TR-FRET detection reagents (0.2 μM streptavidine-XL665 [Cisbio Bioassays, Codolet, France] and 1 nM anti-RB(pSer807/pSer811)-antibody from BD Pharmingen [#558389] and 1.2 nM LANCE EU-W1024 labeled anti-mouse IgG antibody [Perkin-Elmer, product no. AD0077, as an alternative a Terbium-cryptate-labeled anti-mouse IgG antibody from Cisbio Bioassays can be used]) in an aqueous EDTA-solution (100 mM EDTA, 0.2% (w/v) bovine serum albumin in 100 mM HEPES/NaOH pH 7.0).
The resulting mixture was incubated 1 h at 22° C. to allow the formation of complex between the phosphorylated biotinylated peptide and the detection reagents. Subsequently the amount of phosphorylated substrate was evaluated by measurement of the resonance energy transfer from the Eu-chelate to the streptavidine-XL. Therefore, the fluorescence emissions at 620 nm and 665 nm after excitation at 350 nm was measured in a TR-FRET reader, e.g. a Rubystar (BMG Labtechnologies, Offenburg, Germany) or a Viewlux (Perkin-Elmer). The ratio of the emissions at 665 nm and at […] was taken as the measure for the amount of phosphorylated substrate. The data were normalised (enzyme reaction without inhibitor=0% inhibition, all other assay components but no enzyme=100% inhibition).

[2] = tested on: human cervical tumor cell line HeLa (ATCC CCL-2); assay: SAC-Formation - Paclitaxel-Induced Assay; type: cell-based; conditions: Homo sapiens, HeLa, 24 h, HeLa cells, paclitaxel 0.05 μM, test range 0.005 μM-20 μM, read-out: IC50 [mol/l] SAC-Formation - Paclitaxel-Induced Assay
How it was run: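 HeLa cells incubated overnight at 37° C, then given paclitaxel (0.05 μM final) plus test compound (0.005–20 μM, 0.5% DMSO) together for 24 h at 37° C. Fixed cells stained for phospho-histone H3 Ser10 (mitotic cells) and Hoechst 33342 (cell count); imaging-derived mitotic index fitted by four-parameter Hill equation.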

SMILES	IC50 [1]	IC50 [2]
Cc1nsc(Nc2cnc3ccccc3n2)c1C(=O)Nc1cccc(C(=O)N[C@H](C(=O)O)[C@@H](C)OC(C)(C)C)c1 [Example 104, O-tert-Butyl-N-[3-({[3-methyl-5-(quinoxalin-2-ylamino)-1,2-thiazol-4-yl]-carbonyl}amino)benzoyl]threonine]	≥ 20000 nM	3200 nM
Cc1nsc(Nc2cncc(C(F)(F)F)n2)c1C(=O)Nc1ccc(OCC2CCN(C(=O)OC(C)(C)C)C2)nc1 (centres unmarked) [Example 110, tert-Butyl 3-{[(5-{[(3-methyl-5-{[6-(trifluoromethyl)pyrazin-2-yl]amino}-1,2-thiazol-4-yl)carbonyl]amino}pyridin-2-yl)oxy]methyl}pyrrolidine-1-carboxylate]	≥ 20000 nM	150 nM
CNS(=O)(=O)c1ccc(NC(=O)c2c(C)nsc2Nc2cnc3ccccc3n2)cc1 [Example 111, 3-Methyl-N-[4-(methylsulfannoyl)phenyl]-5-(quinoxalin-2-ylamino)-1,2-thiazole-4-carboxamide]	≥ 20000 nM	130 nM
Cc1nsc(Nc2cnc3ccccc3n2)c1C(=O)Nc1cccc(C(=O)N2CCCC2)c1 [Example 113, 3-Methyl-N-[3-(pyrrolidin-1-ylcarbonyl)phenyl]-5-(quinoxalin-2-ylamino)-1,2-thiazole-4-carboxamide]	≥ 20000 nM	1700 nM
Cc1nsc(Nc2cnc3ccccc3n2)c1C(=O)Nc1ccc(S(C)(=O)=O)cc1 [Example 115, 3-Methyl-N-[4-(methylsulfonyl)phenyl]-5-(quinoxalin-2-ylamino)-1,2-thiazole-4-carboxamide]	≥ 20000 nM	3700 nM
CCNS(=O)(=O)c1ccc(NC(=O)c2c(C)nsc2Nc2cnc3ccccc3n2)cc1 [Example 116, N-[4-(Ethylsulfamoyl)phenyl]-3-methyl-5-(quinoxalin-2-ylamino)-1,2-thiazole-4-carboxamide]	≥ 20000 nM	1500 nM
Cc1nsc(Nc2ccc(C#N)cn2)c1C(=O)Nc1ccc(Oc2cccc(C(F)(F)F)c2)nc1 [Example 118, 5-[(5-Cyanopyridin-2-yl)amino]-3-methyl-N-{6-[3-(trifluoromethyl)phenoxy]pyridin-3-yl}-1,2-thiazole-4-carboxamide]	≥ 20000 nM	53 nM
Cc1nsc(Nc2cc(C#N)ccn2)c1C(=O)Nc1ccc(Oc2cccnc2)nc1 [Example 119, 5-[(4-Cyanopyridin-2-yl)amino]-3-methyl-N-[6-(pyridin-3-yloxy)pyridin-3-yl]-1,2-thiazole-4-carboxamide]	≥ 20000 nM	20000 nM
Cc1nsc(Nc2cnc(C(F)(F)F)cn2)c1C(=O)Nc1ccc(OCC2CCN(CC(F)F)C2)nc1 (centres unmarked) [Example 122, N-(6-{[1-(2,2-difluoroethyl)pyrrolidin-3-yl]methoxy}pyridin-3-yl)-3-methyl-5-{[5-(trifluoromethyl)pyrazin-2-yl]amino}-1,2-thiazole-4-carboxamide]	≥ 20000 nM	30 nM
Cc1nsc(Nc2cnc(C(F)(F)F)cn2)c1C(=O)Nc1ccc(OCC2CCN(CC(F)(F)F)C2)nc1 (centres unmarked) [Example 123, 3-Methyl-N-(6-{[1-(2,2,2-trifluoroethyl)pyrrolidin-3-yl]methoxy}pyridin-3-yl)-5-{[5-(trifluoromethyl)pyrazin-2-yl]amino}-1,2-thiazole-4-carboxamide]	≥ 20000 nM	24 nM
Cc1nsc(Nc2cnc(C(F)(F)F)cn2)c1C(=O)Nc1ccc(OC[C@@H]2CCN(CC(F)(F)F)C2)nc1 [Example 128, 3-Methyl-N-(6-{[(3R)-1-(2,2,2-trifluoroethyl)pyrrolidin-3-yl]methoxy}pyridin-3-yl)-5-{[5-(trifluoromethyl)pyrazin-2-yl]amino}-1,2-thiazole-4-carboxamide]	> 20000 nM	70 nM

More lines, now with the values ahead:

IC50 [1]	IC50 [2]	SMILES
≥ 20000 nM	20000 nM	Cc1nsc(Nc2cnc3ccccc3n2)c1C(=O)Nc1cccc(C(=O)N[C@@H](CCC(N)=O)C(=O)O)c1 [Example 103, N^2-[3-({[3-Methyl-5-(quinoxalin-2-ylamino)-1,2-thiazol-4-yl]carbonyl}amino)-benzoyl]glutamine]
≥ 20000 nM	20000 nM	Cc1nsc(Nc2cnc3ccccc3n2)c1C(=O)Nc1cccc(C(=O)N[C@H](C(=O)O)[C@@H](C)O)c1 [Example 105, N-[3-({[3-methyl-5-(quinoxalin-2-ylamino)-1,2-thiazol-4-yl]carbonyl}amino)-benzoyl]threonine]
≥ 20000 nM	130 nM	Cc1noc(-c2cccc(NC(=O)c3c(C)nsc3Nc3cnc4ccccc4n3)c2)n1 [Example 106, 3-Methyl-N-[3-(3-methyl-1,2,4-oxadiazol-5-yl)phenyl]-5-(quinoxalin-2-ylamino)-1,2-thiazole-4-carboxamide]
≥ 20000 nM	210 nM	Cc1nsc(Nc2cnc3ccccc3n2)c1C(=O)Nc1cccc(-c2nnc(C(C)(C)C)o2)c1 [Example 107, N-[3-(5-tert-Butyl-1,3,4-oxadiazol-2-yl)phenyl]-3-methyl-5-(quinoxalin-2-ylamino)-1,2-thiazole-4-carboxamide]
≥ 20000 nM	53 nM	Cc1nsc(Nc2cnc3ccccc3n2)c1C(=O)Nc1cccc(-c2nc(C(C)(C)C)no2)c1 [Example 108, N-[3-(3-tert-Butyl-1,2,4-oxadiazol-5-yl)phenyl]-3-methyl-5-(quinoxalin-2-ylamino)-1,2-thiazole-4-carboxamide]
≥ 20000 nM	37 nM	Cc1nsc(Nc2cnc(C(F)(F)F)cn2)c1C(=O)Nc1ccc(OCC2CCN(C(=O)OC(C)(C)C)C2)nc1 (centres unmarked) [Example 109, tert-Butyl 3-{[(5-{[(3-methyl-5-{[5-(trifluoromethyl)pyrazin-2-yl]amino}-1,2-thiazol-4-yl)carbonyl]amino}pyridin-2-yl)oxy]methyl}pyrrolidine-1-carboxylate]
≥ 20000 nM	800 nM	CC(=O)N(C)CCOc1ccc(NC(=O)c2c(C)nsc2Nc2nc3c(C(F)(F)F)cccc3s2)cn1 [Example 112, N-(6-{2-[Acetyl(methyl)amino]-ethoxy}pyridin-3-yl)-3-methyl-5-{[4-(trifluoromethyl)-1,3-benzothiazol-2-yl]amino}-1,2-thiazole-4-carboxamide]
≥ 20000 nM	1300 nM	Cc1nsc(Nc2cc(C#N)ccn2)c1C(=O)Nc1cccc(C(=O)N2CCCC2)c1 [Example 114, 5-[(4-Cyanopyridin-2-yl)amino]-3-methyl-N-[3-(pyrrolidin-1-ylcarbonyl)phenyl]-1,2-thiazole-4-carboxamide]
≥ 20000 nM	1500 nM	Cc1nsc(Nc2cnc3ccccc3n2)c1C(=O)Nc1ccc(Oc2cccc(C(F)(F)F)c2)nc1 [Example 117, 3-Methyl-5-(quinoxalin-2-ylamino)-N-{6-[3-(trifluoromethyl)phenoxy]pyridin-3-yl}-1,2-thiazole-4-carboxamide]
≥ 20000 nM	38 nM	Cc1nsc(Nc2cnc(C(F)(F)F)cn2)c1C(=O)Nc1ccc(OCC2CCN(CCC(F)(F)F)C2)nc1 (centres unmarked) [Example 124, 3-methyl-5-{[5-(trifluoromethyl)pyrazin-2-yl]amino}-N-(6-{[1-(3,3,3-trifluoropropyl)pyrrolidin-3-yl]methoxy}pyridin-3-yl)-1,2-thiazole-4-carboxamide]
> 20000 nM	83 nM	Cc1nsc(Nc2cnc(C(F)(F)F)cn2)c1C(=O)Nc1ccc(OC[C@@H]2CCN(CC(F)F)C2)nc1 [Example 127, N-(6-{[(3R)-1-(2,2-difluoroethyl)pyrrolidin-3-yl]methoxy}pyridin-3-yl)-3-methyl-5-{[5-(trifluoromethyl)pyrazin-2-yl]amino}-1,2-thiazole-4-carboxamide]
